Here are results for 1 compound from US7795314B2, “Protective role of semapimod in necrotizing enterocolitis” (Cytokine PharmaSciences, Inc., priority 2005, dated 2010).

In experiment [1] the test system is formula-feeding/hypoxia-mediated intestinal injury (experimental NEC). The experiment is described as follows: Animal model of NEC: incidence of NEC and morphologic evaluation of terminal ileum. Particulars: FFH newborn rats. The class given is in vivo, Sprague-Dawley rats (newborn). The method, then:
(§1) All the experiments were carried out according to an animal protocol approved by the Animal Research and Care Committee (ARCC) of the Children's Hospital of Pittsburgh. Pregnant time-dated Sprague-Dawley rats (Charles River Labs, Wilmington, Mass.) were induced at term using a subcutaneous injection (1 to 2 U per animal) of Pitocin® (Monarch Pharmaceuticals, Bristol, Tenn.). Immediately after birth, the neonates were weighed and randomized into one of the different treatment groups. Group 1 consisted of neonatal rats left with their mother, and thus were breast-fed. […]
Newborn rats separated from their mothers were fed a conventional formula and exposed to hypoxia after administration of the drug semapimod (0.1-1 mg/kg, i.p.) as described in Methods. […] Incidence of NEC was calculated as the percentage of animals displaying pathology scores higher than 0 as assessed by histology. Results in graph bars are the mean±S.E.M. (n=15-45 animals for each group, *P<0.05 vs. FFH without semapimod, analyzed by one-way ANOVA followed by Fisher's LSD Test).

The subject of experiment [2] is endotoxin-induced TNF release and shock. As to conditions: adult male Lewis rats, icv. vs intravenous; cited from earlier work.
A further experiment has as its system Bad. In words: Western blotting of ileal mucosal scrapings, NEC model. The format is in vivo, rat. Particulars: FFH pups, 0.75 mg/kg IP daily, day 4, FIG. 4a. The protocol:
as §1
(§2) Newborn rats were sacrificed as indicated and segments of the terminal ileum were isolated. […] Protein concentration in the supernatant was determined using the bicinchoninic acid (BCA) Protein Assay kit form Sigma (St. Louis, Mo.) with bovine serum albumin as standard. […]
On the technique in general: In western blotting, separated proteins are transferred to a membrane and probed.

In another experiment the test system is Bax. Described as above. The class given is in vivo, rat. As to conditions: FFH pups, 0.75 mg/kg IP daily, day 4, FIG. 4b. The method, then: as §1, §2
The test system of the next experiment is RAGE. Described as above. The format is in vivo, rat. As to conditions: FFH+semapimod vs FFH, day 4, 45 and 25 kDa bands, FIG. 3c. The method, then: as §1, §2
The test system of another experiment is HMGB1. The description is as above. The format is in vivo, rat. Particulars: FFH+semapimod vs FFH, day 4, 30 kDa band, FIG. 3a. The method, then: as §1, §2
In a further experiment the test system is COX-2. The experiment is described as above. The class given is in vivo, rat. Particulars: FFH animals, 0.75 mg/kg IP daily, day 4, FIG. 5b. The method, then:
as §1, §2

A further experiment has as its system iNOS. The description is as above. The class given is in vivo, rat. As to conditions: FFH animals, 0.75 mg/kg IP daily, day 4, FIG. 5a. The protocol:
as §1, §2

A further experiment has as its system p38 MAP kinase. The experiment is described as follows: Activation (phosphorylation) of p38 MAP kinase in IEC-6 cells, Western blotting pp38/p38. The class given is cell-based, rat. The method, then: The rat intestinal crypt cell line IEC-6 was purchased from the American Type Culture Collection (ATCC, Manassas, Va.). Cells were grown in tissue culture medium consisting of Dulbeco's modified Eagle's medium with 4.5 gm/L glucose (Bio-Whittaker, Walkersville, Md.) supplemented with 5% fetal bovine serum (Bio-Whittaker), 0.02 mM glutamine (GIBCO; Grand Island, N.Y.), 0.1 U/ml insulin, 100 U/ml penicillin, and 100 μg/ml streptomycin (GIBCO) at 37° C. and 10% CO2. Cells were pretreated with semapimod (0.1-10 μM solutions prepared in 5% dextrose) followed by short exposure to LPS (5 μg/ml), peroxynitrite (ONOO^−, 50 μM) or cytomix (a combination of tumor necrosis factor (TNFα, 10 ng/ml), interleukin-1β (IL-β, 1 ng/ml), and interferon-gamma (IFNγ, 1000 U/ml) for 10 min. Preparation of the ONOO^− solution and cell treatment was as previously reported (36). The lysates were collected for Western blotting analysis as follows: proteins were extracted for 10 min at 4° C. witih lysis buffer (20 mM Tris pH 8.0, 150 mM NaCl, 1% NP-40, 0.5% sodium deoxycholate, 0.1% sodium dodecylsulfate) supplemented with protease and phosphatase inhibitors: 1 mM PMSF, 1 mM benzamidine, 50 μg/ml aprotinin, 0.5 mM Na3VO4, 20 mM NaF, and 0.5 mM phenylarsine oxide. Aliquots containing 50 μg total protein were resolved by SDS-polyacrylamide gel electrophoresis. Gels were electroblotted onto nitrocellulose membranes. Following 1 hr incubation in blocking solution (phosphate-buffered saline, 0.1% Tween-20, 2% fish gelatin, pH 7.5), membranes were incubated with primary (phospho-p38 and p38) and secondary horseradish peroxidase-conjugated antibodies as recommended by manufacturers. Membranes were then impregnated with luminol reagent and exposed to x-ray film.
(a) Rat intestinal epithelial cells (IEC-6) were pretreated with different doses of the drug (0.1-10 μM) for 1 hr. prior to stimulation with 5 μg/ml LPS for 10 min or (b) were pretreated with semapimod (5 μM) for 1 hr. prior to stimulation with 5 μg/ml LPS or ONOO^− (50 μM) for 10 min. The protein lysates were then collected and Western blotting analysis for phospho-p38 and p38 (loading control) was performed as described in Methods. (a) A representative blot for pp38/p38 and densitometric analysis showing the ratio of pp38/p38 band intensity. Ctrl are non-stimulated cells. Results in graph bars are the mean±S.E.M. (n=3 independent experiments, *P<0.05 vs. LPS treated cells without pretreatment with semapimod, analyzed by one-way ANOVA followed by Fisher's LSD Test).
The present inventors have previously shown that LPS causes rapid but transient activation of p38 MAP kinase as determined by increased phosphorylation of p38. […] The effect of semapimod on p38 activation by inflammatory mediators other than LPS was evaluated.

[3] abbreviates: 0.1-10 μM pretreatment 1 hr, then 5 μg/ml LPS 10 min, FIG. 6a.

Each structure is given as a SMILES string.

With `C/C(=N\NC(=N)N)c1cc(NC(=O)CCCCCCCCC(=O)Nc2cc(/C(C)=N/NC(=N)N)cc(/C(C)=N/NC(=N)N)c2)cc(/C(C)=N/NC(=N)N)c1` [semapimod], the “severity of intestinal injury / morphology as assessed by histology” value in experiment [1] (0.75 mg/kg i.p., day 4, FIG. 3b, 0.75 mg/kg) is given as “decrease in the severity of injury”. Also, the “doses that prevented intestinal damage (reduction in the incidence of NEC)” value in experiment [1] (semapimod 0.1-1 mg/kg i.p. daily, terminal ileum day 4, FIG. 2) is “higher than 0.5 mg/kg”. In addition, in experiment [2], the “effectiveness of icv. administration in suppressing endotoxin-induced TNF release and shock as compared with intravenous” value was 100,000 fold. In addition, the “expression of Bad protein in mucosal scrapings” value with Bad is on record as “significantly decreased”. The “expression of Bax protein in mucosal scrapings” value in the experiment with Bax is “significantly decreased”. Also, the “expression of RAGE in ileal mucosal scrapings” value in the experiment with RAGE is listed as “expression of RAGE was reduced”. The “HMGB1 protein expression in ileal mucosa” value in the experiment with HMGB1 is reported as “reduced after administration of semapimod”. Moreover, the “expression of COX-2 protein in terminal ileum” value in the experiment on COX-2 is “significantly decreased”. For the same compound, the “expression of iNOS protein in terminal ileum” value with iNOS was “significantly decreased”. For the same compound, the “phosphorylation of p38 induced by ONOO−” value in the experiment on p38 MAP kinase (5 μM semapimod pretreatment 1 hr, ONOO− 50 μM 10 min, FIG. 6b) is given as “not inhibited”. Moreover, in the experiment with p38 MAP kinase (setting [3]), the “concentrations with maximal effect on LPS-induced phosphorylation of p38” value is “higher than 1 μM” and the “phosphorylation of p38 induced by LPS” value is listed as “dose dependently inhibited”. For the same compound, the “p38 activation by a mixture of TNFα, IL-1β and IFN-γ” value in the experiment on p38 MAP kinase (semapimod pretreatment, cytomix 10 min (not shown)) was “failed to inhibit”.
